In the NIST ThermoML archive (doi:10.1016/j.tca.2012.04.001):

What was measured:
[1] = 101.33 kPa, Liquid, Vibrating tube method
[2] = xn = mol fraction of the nth substance listed; conditions: 101 kPa, Liquid, Vibrating tube method

CCCCCl [1-chlorobutane]
[1]
Conditions | mass density [kg/m3]
288.15 K | 891.747
303.15 K | 875.099
313.15 K | 863.833

CCC(C)=O [butanone] + CCCCCCC
mass density [kg/m3], [2]
Conditions | 288.15 K | 303.15 K | 313.15 K
x2 = 0.0488 | 799.693 | 784.166 | 773.658
x2 = 0.0875 | 791.829 | 776.433 | 766.011
x2 = 0.1976 | 771.92 | 756.87 | 746.674
x2 = 0.2409 | 764.837 | 749.92 | 739.808
x2 = 0.2995 | 755.954 | 741.212 | 731.216
x2 = 0.3726 | 745.725 | 731.183 | 721.184
x2 = 0.444 | 736.645 | 722.313 | 712.588
x2 = 0.4708 | 733.346 | 719.166 | 709.492
x2 = 0.5132 | 728.532 | 714.398 | 704.806
x2 = 0.5941 | 719.999 | 706.083 | 696.646
x2 = 0.7024 | 709.67 | 696.076 | 686.851
x2 = 0.7471 | 705.937 | 692.464 | 683.324
x2 = 0.8016 | 701.621 | 688.317 | 679.294
x2 = 0.8341 | 699.194 | 686.007 | 677.044
x2 = 0.896 | 694.863 | 681.831 | 672.997
x2 = 0.9545 | 691.133 | 678.282 | 669.575

CCCC(C)=O [pentan-2-one]
[1]
Conditions | mass density [kg/m3]
288.15 K | 811.491
303.15 K | 796.955
313.15 K | 787.16

CCCC(C)=O [pentan-2-one] + CCCCCl
mass density [kg/m3], [2]
Conditions | 288.15 K | 303.15 K | 313.15 K
x2 = 0.0725 | 816.977 | 802.287 | 792.387
x2 = 0.1054 | 819.501 | 804.742 | 794.796
x2 = 0.1321 | 821.521 | 806.72 | 796.726
x2 = 0.2299 | 829.083 | 814.071 | 803.941
x2 = 0.2994 | 834.489 | 819.331 | 809.089
x2 = 0.3515 | 838.598 | 823.323 | 813
x2 = 0.4369 | 845.4 | 829.942 | 819.494
x2 = 0.493 | 849.874 | 834.295 | 823.772
x2 = 0.5816 | 857.018 | 841.242 | 830.585
x2 = 0.6518 | 862.707 | 846.788 | 836.036
x2 = 0.6948 | 866.208 | 850.202 | 839.378
x2 = 0.749 | 870.664 | 854.538 | 843.633
x2 = 0.8055 | 875.345 | 859.097 | 848.116
x2 = 0.8359 | 877.911 | 861.609 | 850.574
x2 = 0.8866 | 882.185 | 865.757 | 854.665
x2 = 0.9145 | 884.566 | 868 | 856.9

CCCCCCC [heptane]
[1]
Conditions | mass density [kg/m3]
288.15 K | 688.588
303.15 K | 675.838
313.15 K | 665.838
